How the values were obtained:
[1] = test system: RAW264.7 macrophage cells; experiment: In vitro Firefly luciferase expression (mRNA transfection); assay type: cell-based; conditions: 100 ng mRNA per well, 24 hours after transfection (FIG. 14)
Experimental: For the detection of Firefly luciferase expression in vitro, the ONE-Glo™ Luciferase Assay System (Promega) was used. RAW264.7 cells were seeded at a density of 35 k cells per well in a 96-well plate in 100 μL. After approximately 6 hours the RAW264.7 cells were transfected with 10 μL Firefly luciferase mRNA (RIBOPRO) using aNPs or LNPs at a dose of 100 ng mRNA per well. 24 hours after transfection, cell viability was determined by a CellTiter 96® AQueous One Solution Cell Proliferation assay (MTS) (Promega) assay. 10 μL reagent was added to the cells, and absorbance was measured at 495 nm after an hour of incubation (37° C., 5% CO2). Subsequently, the cells were washed three times with 1×PBS, and then 40 μL ONE-Glo™ Luciferase Assay Reagent was added to each well. After complete lysis of the cells, the cell lysates were transferred to a white flat bottom 96-well plate. Luminescence was measured using a Tecan Spark plate reader. Luciferase expression was expressed as luciferase intensity after normalization to the cell viability and subtracting background signal.

[2] = Cryo-TEM of nanoparticles; assay type: physicochemical; conditions: siRNA-aNPs containing the polyvalent material
Experimental: Size and shape of the nanoparticles was also assessed by cryo-transmission electron microscopy (cryo-TEM). The surface of 200-mesh lacey carbon supported copper grids (Electron Microscopy Sciences) was plasma charged for 40 seconds using a carbon coater (Cressington 208). Subsequently, 3 μl of nanoparticle sample (˜1 mg protein/ml) was pipetted on a grid and vitrified into a thin film by plunge vitrification in liquid ethane. This step was performed by using an automated robot (FEI Vitrobot Mark IV). Cryo-TEM imaging was acquired on the cryo-transmission electron microscope TITAN (Thermo Fisher), equipped with a field emission gun (FEG), a post-column Gatan imaging filter (model 2002) and a post-GIF 2 k×2 k Gatan CCD camera (model 794). The imaging was performed at 300 kV acceleration voltage in bright-field TEM mode with zero-loss energy filtering at 24,000× magnification (dose rate of 11.8 e−/Å2·s), and 1s acquisition time. Pictures and results are reported in Table S6, FIG. 7, FIG. 8, FIG. 9 (A), FIG. 15.

## CCCCCCCCOC(=O)CCN(CCCN(CCCCN(CCCN(CCC(=O)OCCCCCCCC)CCC(=O)OCCCCCCCC)CCCN(CCC(=O)OCCCCCCCC)CCC(=O)OCCCCCCCC)CCCN(CCC(=O)OCCCCCCCC)CCC(=O)OCCCCCCCC)CCC(=O)OCCCCCCCC [Example A2, G1-ACR-nC8-8]
[1]
  Luminescence intensity after Firefly luciferase mRNA transfection, compared with ALC-0315 LNP and aNP controls: outperform the reference LNP and aNP particles
[2]; SD over n individual particles
  Cryo-TEM Diameter: 55 ± 11 nm
[2]; n individual particles
  Cryo-TEM PDI: 0.04

— US20250325491A1, “POLYVALENT MOLECULE BASED LIPID NANOPARTICLES FOR NUCLEIC ACID DELIVERY” (Bio-TRIP B.V., priority 2022, published 2025)
